Measured values: article PMC11329504, “Identification of novel small molecule-based strategies of COL7A1 upregulation and readthrough activity for the treatment of recessive dystrophic epidermolysis bullosa” (Scientific Reports, 2024)
Like-named read-outs stand apart in the source and are kept apart here.

How the values were obtained:
[1] = tested on: total (truncated + full length) C7 in RDEB_L1 cells; assay: AlphaLISA quantification of total C7 in RDEB_L1 cells; assay type: cell-based, human; conditions: for EC50: Homo sapiens
Method: The AlphaLISA assay was developed in-house by using the biotin-conjugated rabbit polyclonal antibody anti-C7 (LSBio LS-298147) and conjugating the acceptor beads (PerkinElmer 6772001) to a monoclonal anti-Collagen type VII antibody produced in mouse, clone LH7.2 (Thermo MA5-13,432). Formulation of the mAb clone LH7.2 was exchanged to PBS and concentrated 5 × by using Amicon® Ultra-0.5 centrifugal filters up to 1 mg/ml. The conjugation procedure was carried out according to the protocol provided by PerkinElmer.
For compound treatment in RDEB patient-derived transformed keratinocytes, 5,000 cells were plated in 20 µL of supplemented KGM media containing 20 ng/mL TGFβ2 (SIGMA GF113) without GA-1000 in 384-well cell culture plates (Greiner 781098). The day after, 5 µL of test compounds prepared 5 × in supplemented KGM without GA-1000 were added over cells and incubated for 48 h at 37 °C and 5% CO2. For compound treatment in HEK293^R578X, 10,000 cells were plated in 20 μL of DMEM (High Glucose, 2 mM L-Glutamine, sodium pyruvate, and FBS 10%) in 384-well cell culture plates (Greiner 781,098,). The day after, 5 μL of test compounds prepared 5 × in DMEM complete medium were added over cells and incubated for 48 h at 37 °C and 5% CO2.
After the treatment process, 2.5 µL of RIPA buffer 10 x (Abcam ab156034) were added over the […] of cells for 20 min at room temperature to obtain a complete cell lysis. Then, 2 μL of sample (i.e., cell lysate with supernatant) were transferred to the AlphaLISA plate (PerkinElmer 6,059,340) containing […] of antibodies mixture ([…] of acceptor Beads-Ab and […] of biotin-rAb) prepared in AlphaLISA buffer 1 x (PerkinElmer AL00F). The reaction was incubated for 90 min at room temperature. Finally, 10 μL of […] of donor beads (PerkinElmer 6760002,) were added to the reaction under subdued light, mixed gently, and incubated for 3 h at room temperature. AlphaLISA signal was detected with an Envision microplate reader (Perkin Elmer) using the following setting: Filter: AlphaScreen, Excitation time: 180 ms, Integration time: 300 ms.
Statistical analyses were performed using GraphPad Prism v. 7.04 (La Jolla, California). Results are shown as mean ± SD of experimental replicates. Dose–response curves to assess compound treatment effect were plotted in a four-parameter logistic model. Relative EC50, representing the total drug concentration producing a 50% effect, was calculated in the four-parameter logistic equation. Comparisons of collagen protein and mRNA expression in different experimental conditions were made using ANOVA, followed by a post hoc test. statistical significance was considered with p values < 0.05.

[2] = Cytotoxicity, ATP levels, normal human keratinocytes (NHK); assay type: cell-based; conditions: normal human keratinocytes (NHK)
Method: The viability of RDEB patient-derived cell lines or NHK was evaluated by measuring the ATP levels as an indirect readout of the potential cytotoxicity effect of compounds. Cells were plated and treated exactly with the same conditions as those followed in the AlphaLISA assay, described above. To measure ATP levels, cells were processed using the ATPlite™ 1step luminescence-based assay (PerkinElmer 6,016,731), following the manufacturer’s protocol. 25 μL of ATPlite™ reagent was added directly over cells and plates were covered with a sealing film and shaken for 25 min using a microtiter plate shaker. Luminescence was measured in a Luminoskan Ascent luminometer (Thermo Fisher Scientific). 10 μM of Staurosporine was used as a reference compound and control for the total cytotoxicity.

[3] = tested on: RDEB_L1 cells; assay: RNAseq (HTPathwaySeq) transcriptomic profiling, GSEA; assay type: cell-based, human; conditions: 24 h; for modulation of GO terms related to NMD, readthrough, translation and unfolded protein response: 20 ng/mL TGFβ2, compound 7 and 8 at the highest concentrations tested of 100 and 300 µM
Method: The […]®) analysis was conducted at […], Belgium) using samples provided by Almirall. A total of 376 cell lysate samples representing 4 biological replicates of 94 samples were provided to […] in four 96-well plates. On each 96-well plate, two empty wells were allocated to include […] reference samples. Samples from the same biological group were distributed over the different plates to not confound inter-plate variability with biological signal. […] The compounds were evaluated in RDEB_L1 cells in the presence of 20 ng/mL TGFβ2 to mimic RDEB physiology and in normal human keratinocytes with no TGFβ2 treatment. Cells were treated during 24 h. Controls for RDEB_L1 cells not treated with TGFβ2 and RDEB_L1 and NHK cells treated with DMSO in the absence of compounds were also included. The conditions of the assay were identical to those described for the Real-time quantitative RT-PCR (see above). For the […], over 460 M reads were generated for 376 samples of interest, resulting in about 1.22 M reads per sample on average. […] is based on a 3'-end library preparation method, and gene body read coverage is concentrated towards the 3'-end of the genes. For quality control, a selection of lysate samples was checked for gDNA contamination and RNA content using qPCR before library preparation. RNA samples were processed to generate RNA-sequencing libraries using […] procedure based on the QuantSeq (Lexogen) 3'-end library preparation workflow. The quality of a selection of samples was assessed with the 2100 Bioanalyzer instrument (Agilent). Libraries were quantified using qPCR and pooled for single-end sequencing on a NextSeq 500 (Illumina) according to […] standard operating procedure. Raw reads were mapped to the human genome (hg38) and gene expression was quantified based on the Ensembl transcriptome annotation (version 85) using […]. Raw counts were normalized using […]2 prior to differential gene expression analysis. For each cell line, samples were clustered based on log-transformed normalized counts using tSNE. A perplexity parameter of 35 and a maximum number of 1000 iterations were applied. Genes with more than 10 normalized counts in at least 3 samples were used as input. Analysis was run in R (v3.2) with a fixed seed. […] For each contrast, genes ranked by fold change were used as input. PCA was applied on the fold changes of each compound vs their associated vehicle using the 500 genes with the greatest variance. Arrows connect the different incremental dosages used on each compound to observe their differentiation patterns. Pathway enrichment and PCA were performed using R v.3.2. Pathway enrichment was analyzed with cluster profile package. The procedure followed for the cell treatments of RDEB-L1 and NHEK, was the same as that used in the RT-qPCR study. Cell lysis and sample preparation were conducted according to […] instructions: Plates of treated cells were centrifuged for 5 min at 600 g at 4 °C, and the medium was carefully removed to avoid disturbing the cells. Then, cells were washed in PBS, centrifuged and the PBS was removed again. […] After checking that cells were lysed, the samples were transferred to 96-well PCR plates, and then sealed and stored at -80 °C to be sent to […].

[4] = RDEB_L1 cells, total C7 AlphaLISA, 48 h, 20 ng/mL TGFß2, mean ± SD, read-out: Increase in C7 levels EC50(rel)
[5] = human, NHK cells, ATP levels, read-out: Cytotox. IC50

| Compound | EC50 ([1]; RDEB_L1 cells, no gentamicin (Fig. 4b), read-out: EC50 of compound 1, total C7 AlphaLISA) | EC50 [1, 4] | decrease in the EC50 in the presence of increasing concentrations of gentamicin ([1]; RDEB_L1 cells) | Increase in C7 levels Emax, % vs baseline ([1]; RDEB_L1 cells, at 12 µM, 20 ng/mL TGFß2) | effect of the combination with gentamicin on total C7 levels ([1]; RDEB_L1 cells, both at concentrations in the range of their EC50, 48 h, 20 ng/mL TGFβ) | IC50 [2, 5] | TGFβ signaling pathway signature (GSEA) ([3]; 20 ng/mL TGFβ2, at 10 µM) | modulation of GO terms related to NMD, readthrough, translation and unfolded protein response [3] | EC50 ([1]; Table 5 SAR, C7 AlphaLISA, 20 ng/mL TGFß2 (cell line not given; compound 7 values equal RDEB_L1 of Table 1), read-out: Increase in C7 levels EC50 (rel)) | Increase in C7 levels Emax, % vs baseline ([1]; RDEB_L1 cells, at 50 µM, 20 ng/mL TGFß2) | Increase in C7 levels Emax, % vs baseline ([1]; Table 5 SAR, at 50 μM, 20 ng/mL TGFß2) | IC50 ([2]; read-out: cytotoxicity IC50) | TGFβ signaling pathway signature (GSEA) ([3]; 20 ng/mL TGFβ2) | EC50 ([1]; in RDEB_L1 and RDEB_L5 cells, read-out: EC50 (range over two cell lines)) | concentrations at which activity was detectable in the AlphaLISA assay ([1]; RDEB_L1 and L5 cells) | Increase in C7 levels Emax, % vs baseline ([1]; RDEB_L1 cells, 20 ng/mL TGFß2) |
| --- | --- | --- | --- | --- | --- | --- | --- | --- | --- | --- | --- | --- | --- | --- | --- | --- |
| NC(=O)Cn1ccc2ccc(-c3cnc(N)c(C(=O)NC4C5CC6CC4CC(O)(C6)C5)n3)cc21 (stereo not drawn) [Compound 1] | 4.56 µM | 3 ± 1.8 µM | threefold | 3279 ± 1236 at 12 % vs baseline | synergistic effect | 19 ± 2.4 µM | Downregulation of TGFβ signaling | Neither compound 1 nor chuangxinmycin nor 3-methyl-chuangxinmycin showed any impact on these pathways | – | – | – | – | – | – | – | – |
| C#Cc1cc(-c2ccncc2)c(-c2cccc(F)c2)nc1N [Compound 7] | – | 17 ± 6.6 µM | – | – | – | – | – | modulating genes specifically related to cytoplasmic translation and the ribosome | 17 ± 6.6 µM | 412 ± 80 at 50 % vs baseline | 412 ± 80 at 50 % vs baseline | > 100 µM | did not show any effect | – | – | – |
| CNC(C)C1CCC(N)C(OC2C(N)CC(N)C(OC3OCC(C)(O)C(NC)C3O)C2O)O1 (stereo not drawn) [Gentamicin, reference compound] | – | 1700 ± 480 µM | – | – | – | 1600 ± 280 µM | – | modulating genes related with the response to unfolded and topologically incorrect proteins | – | – | – | – | – | 420 to 1700 µM | > 100 µM | 199 ± 112 at 4100 % vs baseline |
